Data reported in the supplement of paper PMC10331698.
± gives the standard deviation of the averaged measurements.

Tests used:
Experiment in all cases: level (log10 ratio to DMSO vehicle control); higher = higher biomarker level / cell amount than vehicle control
Conditions in all cases: in DMSO
[1] = compound: FC(F)(F)C(F)(F)CNCC(F)(F)C(F)(F)F [Bis(1H,1H-perfluoropropyl)amine]
Protocol: (§1)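 BioMAP Diversity Plus panel of 12 human primary cell co-culture systems (3C, 4H, LPS, SAg, BT, BF4T, BE3C, CASM3C, HDF3CGF, KF3CT, MyoF, Mphg). Compounds were added 1 h before stimulation and left for 24 h (MyoF 48 h; BT 72 h for soluble read-outs or 6 d for IgG). Biomarkers were read by ELISA, cytotoxicity by SRB, PBMC viability and proliferation by Alamar Blue. Each well value was divided by the mean of 8 DMSO control wells on the same plate and log10 transformed; duplicate blinded samples were tested at 4 concentrations.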

[2] = compound: NC(=O)C(F)(F)C(F)(F)C(F)(F)C(F)(F)F [Nonafluoropentanamide]
Protocol: as §1

[3] = compound: O=C(O)C(F)(F)C(F)(F)C(F)(F)C(F)(F)C(F)(F)C(F)(F)C(F)(F)C(F)(F)C(F)(F)C(F)F [11-H-Perfluoroundecanoic acid]
Protocol: as §1

[4] = compound: O=C(O)C=CC(F)(C(F)(F)F)C(F)(F)F [3-(Perfluoroisopropyl)-2-propenoic acid]
Protocol: as §1

[5] = compound: O=S(=O)(O)C(F)(F)C(F)(F)C(F)(F)C(F)(F)C(F)(F)C(F)(F)C(F)(F)C(F)(F)C(F)(F)C(F)(F)F [Sodium perfluorodecanesulfonate]
Protocol: as §1

[6] = compound: OCC(F)(F)C(F)(F)C(F)(F)CO [Hexafluoroamylene glycol]
Protocol: as §1

| Test System | level (log10) ([1]; 6700 nM) | level (log10) ([1]; 20000 nM) | level (log10) ([1]; 60000 nM) | level (log10) ([2]; 6700 nM) | level (log10) ([2]; 20000 nM) | level (log10) ([2]; 60000 nM) | level (log10) ([3]; 6700 nM) | level (log10) ([3]; 20000 nM) | level (log10) ([4]; 6700 nM) | level (log10) ([4]; 20000 nM) | level (log10) ([4]; 60000 nM) | level (log10) ([5]; 1500 nM) | level (log10) ([5]; 4400 nM) | level (log10) ([5]; 13000 nM) | level (log10) ([5]; 40000 nM) | level (log10) ([6]; 6700 nM) | level (log10) ([6]; 20000 nM) | level (log10) ([6]; 60000 nM) |
| --- | --- | --- | --- | --- | --- | --- | --- | --- | --- | --- | --- | --- | --- | --- | --- | --- | --- | --- |
| HDF3CGF:CXCL10/IP-10 | 0.011 ± 0.011 | -0.001 ± 0.0042 | 0.0265 ± 0.025 | -0.012 ± 0.0014 | -0.0055 ± 0.00071 | -0.004 ± 0.0014 | -0.117 ± 0.011 | -0.331 ± 0.0071 | -0.007 ± 0.034 | 0.0025 ± 0.035 | -0.001 ± 0.027 | -0.001 ± 0.027 | -0.065 ± 0.0042 | -0.025 ± 0.02 | 0.012 | -0.009 | -0.0135 ± 0.029 | -0.028 ± 0.051 |
| 3C:SRB | -0.02 ± 0.021 | 0.0105 ± 0.0092 | 0.0075 ± 0.0064 | -0.002 ± 0.0042 | 0.0005 ± 0.0035 | -0.011 | 0.0095 ± 0.012 | 0.01 ± 0.025 | 0.0035 ± 0.0078 | 0.0055 ± 0.019 | 0.0155 ± 0.015 | -0.0035 ± 0.0035 | -0.0155 ± 0.016 | -0.04 ± 0.021 | -0.191 ± 0.0028 | -0.01 ± 0.0085 | -0.0035 ± 0.021 | 0 ± 0.021 |
| CASM3C:Proliferation | -0.115 ± 0.024 | 0.0135 ± 0.037 | -0.0005 ± 0.076 | -0.032 ± 0.058 | -0.017 ± 0.03 | -0.0505 ± 0.035 | -0.0495 ± 0.015 | 0.0005 ± 0.043 | 0.0035 ± 0.019 | -0.009 ± 0.0085 | 0.009 ± 0.059 | 0.017 ± 0.0057 | 0.0585 ± 0.061 | -0.006 ± 0.059 | 0.0275 ± 0.03 | -0.0005 ± 0.0021 | -0.0235 ± 0.0092 | 0.007 ± 0.0014 |
| HDF3CGF:PAI-I | -0.001 ± 0.0071 | -0.0105 ± 0.013 | 0 ± 0.033 | -0.014 ± 0.078 | 0.0005 ± 0.059 | 0.0125 ± 0.019 | 0.018 ± 0.0099 | -0.0045 ± 0.0035 | -0.0085 ± 0.018 | -0.0215 ± 0.015 | -0.0005 ± 0.032 | 0.0815 ± 0.042 | 0.159 ± 0.0028 | 0.129 ± 0.041 | 0.147 ± 0.038 | 0.0045 ± 0.0035 | 0.006 ± 0.038 | -0.0145 ± 0.0021 |
| 4H:CD106/VCAM-1 | 0.0125 ± 0.016 | 0.006 ± 0.035 | 0.0155 ± 0.039 | 0.003 ± 0.0028 | 0.0095 ± 0.0064 | 0.008 ± 0.013 | -0.0135 ± 0.016 | -0.0015 ± 0.03 | 0.0275 ± 0.011 | -0.0175 ± 0.019 | 0.016 ± 0.0014 | -0.018 ± 0.011 | -0.0295 ± 0.005 | -0.007 ± 0.0085 | -0.0615 ± 0.0092 | 0.0165 ± 0.029 | 0.0075 ± 0.013 | 0.033 ± 0.017 |
| 3C:CD62E/E-Selectin | -0.0115 ± 0.0092 | -0.0105 ± 0.022 | 0.008 ± 0.024 | -0.014 ± 0.025 | -0.017 ± 0.031 | 0.0085 ± 0.011 | -0.0045 ± 0.025 | 0.0205 ± 0.013 | -0.009 ± 0.013 | -0.031 ± 0.0085 | -0.0155 ± 0.013 | 0.0005 ± 0.0035 | 0.002 ± 0.0071 | 0.0185 ± 0.028 | 0.057 ± 0.05 | -0.0185 ± 0.037 | -0.021 ± 0.025 | -0.012 ± 0.0014 |
| BE3C:tPA | -0.0285 ± 0.0021 | -0.0685 ± 0.011 | -0.0225 ± 0.036 | 0.003 ± 0.0085 | 0.008 ± 0.017 | 0.0095 ± 0.012 | 0.036 ± 0.058 | -0.338 ± 0.018 | -0.004 ± 0.045 | -0.0215 ± 0.042 | 0.022 ± 0.0071 | 0.12 ± 0.017 | 0.186 ± 0.0028 | 0.191 ± 0.013 | -0.103 ± 0.0057 | -0.0205 ± 0.00071 | -0.02 ± 0.0057 | 0.011 ± 0.031 |
| 3C:CCL2/MCP-1 | 0.004 ± 0.031 | -0.0225 ± 0.012 | 0.006 ± 0.016 | -0.0045 ± 0.016 | -0.0125 ± 0.018 | 0.011 ± 0.058 | -0.0085 ± 0.0035 | 0 ± 0.017 | 0.0025 ± 0.022 | -0.009 ± 0.0014 | 0.019 ± 0.02 | 0.0315 ± 0.005 | -0.0195 ± 0.026 | 0.005 ± 0.033 | 0.0655 ± 0.032 | -0.024 ± 0.013 | -0.013 ± 0.0042 | -0.003 |
